From patent publication US9796700B2 (Celgene CAR LLC, priority 2013, dated 2017)

Assays:
MEK1 activated ERK1 = MEK1 activated ERK1 (Homo sapiens (Human), UniProt P27361); assay: Omnia continuous-read kinase assay for potency against MEK1 activated ERK1; assay type: biochemical; settings: MEK1 activated ERK1, WT, ATP at KM
How it was run: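 Apparent IC50 came from initial reaction slopes (RFU vs time) plotted against log inhibitor with a variable-slope fit. Reactions were started with ERK1 (4 nM final) added to 50 μM ATP, roughly at its appKM, and 10 μM Sox-conjugated ST17 peptide in 20 mM Tris pH 7.5, 5 mM MgCl2. Fluorescence was monitored every 71 seconds.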

Erk1 [1] = molecular target: T1, Erk1 (Homo sapiens (Human), UniProt P27361); assay: Protein Mass Modification Assay (intact protein MALDI); assay type: binding
How it was run: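 Human Erk1 was incubated 60 min at room temperature with a 10-fold molar excess of compound, then analysed as intact protein by MALDI with sinapinic acid matrix. The centroid mass shift versus untreated protein was divided by compound molecular weight to give percent modified protein.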
Target sequence in this assay (P27361 whole entry, looked up): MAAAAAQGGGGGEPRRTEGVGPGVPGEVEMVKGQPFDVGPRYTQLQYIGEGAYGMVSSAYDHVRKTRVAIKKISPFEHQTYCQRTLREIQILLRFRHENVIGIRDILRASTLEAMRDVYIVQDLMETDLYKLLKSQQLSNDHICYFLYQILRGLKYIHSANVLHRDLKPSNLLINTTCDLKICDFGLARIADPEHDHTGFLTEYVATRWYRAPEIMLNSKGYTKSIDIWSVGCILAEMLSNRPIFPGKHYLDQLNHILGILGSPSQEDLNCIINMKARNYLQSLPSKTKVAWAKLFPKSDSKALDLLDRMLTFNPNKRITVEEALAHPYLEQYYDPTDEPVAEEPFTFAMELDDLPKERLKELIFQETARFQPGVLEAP

[2] = tested on: p-RSK (ERK activity) in cells after compound washout; assay: Measurement of duration of action of test compounds (pRSK after washout); assay type: cell-based; settings: 6 hr after compound washout
Procedure: The protocol below describes an assay to measure the kinase activity of ERK1 to phosphorylate its substrate, RSK, in the presence of a test compound. This experiment was conducted using a Mesoscale Discovery plate. The day before the assay, HT29 cells were split and plated at 50,000 cells/well in complete growth media. After allowing cells to adhere, the media was removed and replaced with media containing 0.1% FBS and incubated overnight. Blank MDS plates were coated with 25 μl/well RSK capture antibody and incubated at 4° C. overnight. The next day, the media was removed and replaced with 100 μl of media containing a test compound and incubated for 120 minutes at 37° C. The media was removed and replaced with 55 μl of well lysis buffer with protease and phosphatase inhibitors provided in the kit, followed by incubation at 4° C. for 30 minutes. 50 μl of lysate was transferred to a blocked MSD plate, followed by incubation at room temperature for 2 hours under constant shaking. The plate was washed 3 times with MSD wash buffer (cat#R617TX), and 25 μl/well phospho-RSK (pRSK) detection antibody was added with an appropriate Sulfo-tagged anti-species detection antibody diluted in 1% BSA in MSD wash buffer. This mixture was incubated for 1 hour at room temperature under constant shaking. The plate was washed 3 times, and 150 μl 1×MSD read buffer was added, followed by signal detection in an MSD plate reader.
Measurement of Duration of Action of Test Compounds
One day before the assay, the cells were split and added at 50,000 cells per well in flat-bottom 96 well plate in 200 μl of growth media. The next day, the medium was discarded, 100 μl medium containing test compounds was added, and the plate was incubated at 37° C. for 120 minutes. The medium was discarded, and the cells were rinsed 3 times with PBS followed by addition of 200 μl of fresh grow medium. The plate was returned to a 37° C. incubator, and separate cell lysates were made using MSD lysis buffer after 0.25, 0.5, 1, 2, 4, 6, 8 and 18 or 24 hours. Thereafter, pRSK was measured as described above in the section entitled pRSK MSD Assay. The data is presented in Table A under the column titled “p-RSK inhibition at 6 hr (%).”

Erk1 [3] = molecular target: T1, Erk1; assay: Measurement of Erk occupancy with biotinylated covalent probe I-299; assay type: cell-based; settings: HT-29 cells
Procedure: Measurement of Erk Occupancy with Biotinylated Covalent Probe
This experiment measured occupancy of the ERK1 target by compounds according to the invention. This experiment was conducted using the Mesoscale Discovery test kit (Cat. #N45107B). One day before the assay, cells were split and added at 50,000 cells per well to a flat-bottom 96 well plate in 200 μl of growth medium. The next day, the medium was discarded, 100 μl medium containing test compound was added, and the plate was incubated at 37° C. for 120 minutes. The plate was rinsed once with PBS, and 50 μl lysis buffer with test compound was added. The plate was incubated at 4° C. for 30 min, and 30 μl of lysate was transferred to a plate to capture total and phosphor-Erk. Biotinylated probe I-299 was diluted in lysis buffer and added to each well to a final concentration of 0.2 μM. The plate was incubated for 2 hr under constant shaking at room temperature. The plate was washed 3 times with MSD wash buffer. To detect the biotinylated probe bonding, tagged streptavidin was added (MSD, Cat#R32AD-1) at 1 μg/ml, 25 μl/well, followed by a 60 min incubation under shaking. The plate was washed 3 times, 150 μl MSD Read Buffer (Cat#R61TX) was added and the plate was read in a plate reader manufactured by MSD. Percent occupancy by test compound at Erk was calculated by comparing the chemiluminescence readings from treated cells as compared to the chemiluminescence readings in untreated controls (which are defined as 100% probe bonding or 0% occupancy). The amount of covalent probe signal divided by the amount of ERK signal for samples with no test compound treatment represents the maximum probe signal (MPS). In samples treated with test compound prior to covalent probe, the ratio of probe signal to ERK signal (the test probe signal, TPS) was reduced by the degree of target occupancy by the test compound which blocks covalent probe binding. The difference between the MPS and the TPS, divided by the MPS gave the target occupancy by the test compound. This ratio was then expressed as a percent occupancy. Results from this assay are provided in Table A below under the column “Occupancy EC50 (nM) HT-29.”
Target sequence in this assay (P27361 2-379 limits assumed): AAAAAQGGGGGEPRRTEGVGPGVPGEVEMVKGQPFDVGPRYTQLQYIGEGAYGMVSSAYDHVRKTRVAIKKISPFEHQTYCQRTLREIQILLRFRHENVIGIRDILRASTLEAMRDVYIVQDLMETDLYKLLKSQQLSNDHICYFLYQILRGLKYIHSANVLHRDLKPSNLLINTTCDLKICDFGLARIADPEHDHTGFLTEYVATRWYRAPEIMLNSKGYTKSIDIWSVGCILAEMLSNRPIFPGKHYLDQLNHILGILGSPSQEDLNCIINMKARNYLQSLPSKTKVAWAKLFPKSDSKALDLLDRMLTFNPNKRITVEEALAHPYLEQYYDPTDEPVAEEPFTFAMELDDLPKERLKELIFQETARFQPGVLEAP

[4] = tested on: ERK1 phosphorylation of its substrate RSK in HT29 cells; assay: pRSK MSD Assay in HT29 cells; assay type: cell-based; settings: Homo sapiens, HT-29, HT29 cells; read-out: ERK1 PRSK MSD HT29 EC50
How it was run: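 HT29 cells were serum-starved overnight in 0.1% FBS, then treated with compound for 120 min at 37 °C. Lysates were assayed on MSD plates with RSK capture and phospho-RSK detection antibodies using electrochemiluminescence read-out.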

Chain of MEK1 activated ERK1 (P27361 whole entry): as the sequence (P27361 whole entry, looked up) above

| Structure (SMILES) | IC50 (MEK1 activated ERK1) [nM] | ERK1 Mass Mod (%) (Erk1 [1]) | p-RSK inhibition at 6 hr (%) [2] | EC50 (Erk1 [3]) [nM] | EC50 [4] [nM] |
| --- | --- | --- | --- | --- | --- |
| C=CC(=O)Nc1ccccc1Nc1nc(Nc2cc(OC)ncc2C)ncc1Cl [Compound I-240, N-(2-((5-chloro-2-((2-methoxy-5-methylpyridin-4-yl)amino)pyrimidin-4-yl)amino)phenyl)acrylamide] | < 100 | E (provided a mass modification of ≧70%) | E (provided a p-RSK inhibition percent of ≧70%) | – | – |
| C=CC(=O)Nc1cc(C)ccc1Nc1nc(Nc2cc(OC)ncc2C)ncc1Cl [Compound I-241, N-(2-((5-chloro-2-((2-methoxy-5-methylpyridin-4-yl)amino)pyrimidin-4-yl)amino)-5-methylphenyl)acrylamide] | < 100 | E (provided a mass modification of ≧70%) | E (provided a p-RSK inhibition percent of ≧70%) | – | – |
| C=CC(=O)Nc1ccccc1Nc1nc(Nc2cc(C(N)=O)ccc2C)ncc1C(F)(F)F [Compound I-68, 3-(4-(2-Acrylamidophenylamino)-5-(trifluoromethyl)pyrimidin-2-ylamino)-4-methylbenzamide] | < 100 | E (provided a mass modification of ≧70%) | E (provided a p-RSK inhibition percent of ≧70%) | < 100 | – |
| C=CC(=O)Nc1ccccc1Nc1nc(N[C@H]2CCCN(C(=O)CO)C2)ncc1C(F)(F)F [Compound I-15, (S)—N-(2-((2-((1-(2-hydroxyacetyl)piperidin-3-yl)amino)-5-(trifluoromethyl)pyrimidin-4-yl)amino)phenyl)acrylamide] | < 100 | E (provided a mass modification of ≧70%) | E (provided a p-RSK inhibition percent of ≧70%) | – | < 100 |
| C=CC(=O)Nc1cc(C)ccc1Nc1nc(N[C@H]2CCCN(C(=O)CO)C2)ncc1Cl [Compound I-140, (S)—N-(2-((5-chloro-2-((1-(2-hydroxyacetyl)piperidin-3-yl)amino)pyrimidin-4-yl)amino)-5-methylphenyl)acrylamide] | < 100 | E (provided a mass modification of ≧70%) | F (provided a p-RSK inhibition percent of 31-69%) | – | – |
| C=CC(=O)Nc1cc(C)ccc1Nc1nc(Nc2cc(C(N)=O)ccc2C)ncc1Cl [Compound I-229, 3-((4-((2-acrylamido-4-methylphenyl)amino)-5-chloropyrimidin-2-yl)amino)-4-methylbenzamide] | < 100 | E (provided a mass modification of ≧70%) | E (provided a p-RSK inhibition percent of ≧70%) | – | – |
| C=CC(=O)Nc1ccccc1Nc1nc(Nc2cc(OC)ncc2C)ncc1C(F)(F)F [Compound I-85, N-(2-((2-((2-Methoxy-5-methylpyridin-4-yl)amino)-5-(trifluoromethyl)pyrimidin-4-yl)amino)phenyl)acrylamide] | 101 to 500 | G (proived a mass modification ≦30%) | E (provided a p-RSK inhibition percent of ≧70%) | – | – |
